Laboratory results as given in the NIST ThermoML archive (doi:10.1021/je700202h).
Numbers after ± are expanded uncertainties.

Settings: 101.33 kPa, Liquid

Row | mass density (293.15 K) | viscosity (293.15 K) | mass density (298.15 K) | viscosity (298.15 K) | mass density (303.15 K) | viscosity (303.15 K) | mass density (308.15 K) | viscosity (308.15 K) | mass density (313.15 K) | viscosity (313.15 K) | SMILES
1 | 717.9 ± 0.9 kg/m3 | 0.7091 ± 0.012 mPa·s | 714 ± 0.9 kg/m3 | 0.664 ± 0.012 mPa·s | 710.8 ± 1 kg/m3 | 0.6217 ± 0.011 mPa·s | 706.7 ± 1 kg/m3 | 0.5849 ± 0.011 mPa·s | 702.8 ± 1.1 kg/m3 | 0.55 ± 0.01 mPa·s | CCCCCCCCC [nonane]
2 | 682.8 ± 0.7 kg/m3 | 0.4142 ± 0.0078 mPa·s | 678.6 ± 0.8 kg/m3 | 0.3928 ± 0.0075 mPa·s | 674.7 ± 0.8 kg/m3 | 0.3728 ± 0.0072 mPa·s | 670.7 ± 0.9 kg/m3 | 0.3541 ± 0.007 mPa·s | 665.6 ± 0.9 kg/m3 | 0.3374 ± 0.0067 mPa·s | CCCCCCC [heptane]
